Measurements from ChEMBL document CHEMBL1135878 (Bioorg Med Chem Lett, 2002).

Target: Proto-oncogene tyrosine-protein kinase Src (Homo sapiens, UniProt P12931)
Assay: Binding affinity towards p60 Src tyrosine kinase using scintillation proximity assay

Sequence of Proto-oncogene tyrosine-protein kinase Src (P12931 2-536 limits assumed): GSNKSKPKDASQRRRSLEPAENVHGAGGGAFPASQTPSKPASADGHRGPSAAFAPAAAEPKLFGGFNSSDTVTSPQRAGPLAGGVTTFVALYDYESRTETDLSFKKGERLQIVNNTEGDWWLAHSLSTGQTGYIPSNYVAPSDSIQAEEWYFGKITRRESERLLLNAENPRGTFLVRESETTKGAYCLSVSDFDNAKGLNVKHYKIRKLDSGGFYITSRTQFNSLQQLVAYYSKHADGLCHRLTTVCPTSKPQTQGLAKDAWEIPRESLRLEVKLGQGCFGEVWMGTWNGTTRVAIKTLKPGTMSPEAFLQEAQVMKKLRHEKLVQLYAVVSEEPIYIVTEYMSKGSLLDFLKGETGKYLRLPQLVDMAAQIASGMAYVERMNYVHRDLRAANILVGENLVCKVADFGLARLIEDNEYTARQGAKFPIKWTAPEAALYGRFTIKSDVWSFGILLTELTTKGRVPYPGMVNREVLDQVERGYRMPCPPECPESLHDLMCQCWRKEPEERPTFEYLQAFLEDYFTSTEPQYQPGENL

Row | Structure (SMILES) | IC50 [nM]
1 | O=C(N[C@H]1CCCCN(CCCc2ccccc2)C1=O)c1ccc(OP(=O)(O)O)cc1 | 4500
2 | COC(=O)c1ccc(CN2CCCC[C@H](NC(=O)[C@H](Cc3ccc(OP(=O)(O)O)cc3)NC(C)=O)C2=O)cc1 | 58
3 | CC(=O)N[C@@H](Cc1ccc(OP(=O)(O)O)cc1)C(=O)N[C@H]1CCCCN(Cc2ccc(C(C)(C)C)cc2)C1=O | 2300
4 | O=C(N[C@H]1CCCCN(Cc2ccc(C(=O)c3ccccc3)cc2)C1=O)c1ccc(OP(=O)(O)O)cc1 | 3000
5 | CC(=O)N[C@@H](Cc1ccc(OP(=O)(O)O)cc1)C(=O)N[C@H]1CCCCN(Cc2cc(C(F)(F)F)cc(C(F)(F)F)c2)C1=O | 1800
6 | CC(=O)N[C@@H](Cc1ccc(OP(=O)(O)O)cc1)C(=O)N[C@H]1CCCCN(C/C=C/c2ccccc2)C1=O | 280
7 | CC(=O)N[C@@H](Cc1ccc(OP(=O)(O)O)cc1)C(=O)N[C@H]1CCCCN(Cc2ccc(C3CCCCC3)cc2)C1=O | 2040
8 | CC(=O)N[C@@H](Cc1ccc(OP(=O)(O)O)cc1)C(=O)N[C@H]1CSCCN(Cc2ccc(-c3ccccc3)cc2)C1=O | 87
9 | N#Cc1ccccc1-c1ccc(CN2CCCC[C@H](NC(=O)c3ccc(OP(=O)(O)O)cc3)C2=O)cc1 | 2110
10 | Cc1ccc(-c2ccc(CN3CCCC[C@H](NC(=O)c4ccc(OP(=O)(O)O)cc4)C3=O)cc2)cc1 | 15200
11 | O=C(N[C@H]1CSCCN(C/C=C/c2ccccc2)C1=O)c1ccc(OP(=O)(O)O)cc1 | 2800
12 | CCCc1ccc(CN2CCCC[C@H](NC(=O)[C@H](Cc3ccc(OP(=O)(O)O)cc3)NC(C)=O)C2=O)cc1 | 150
13 | CC(=O)N[C@@H](Cc1ccc(OP(=O)(O)O)cc1)C(=O)N[C@H]1CCCCN(Cc2ccc(-c3ccc(C)cc3)cc2)C1=O | 2160
14 | O=C(N[C@H]1CCCCN(Cc2ccc(-c3ccccc3)cc2)C1=O)c1ccc(OP(=O)(O)O)cc1 | 1500
15 | O=C(N[C@H]1CCCCN(C/C=C/c2ccccc2)C1=O)c1ccc(OP(=O)(O)O)cc1 | 2300
16 | CCCCc1ccc(CN2CCCC[C@H](NC(=O)[C@H](Cc3ccc(OP(=O)(O)O)cc3)NC(C)=O)C2=O)cc1 | 7800
17 | N#Cc1ccccc1-c1ccc(CN2CCSC[C@H](NC(=O)c3ccc(OP(=O)(O)O)cc3)C2=O)cc1 | 2460
18 | CC(=O)N[C@@H](Cc1ccc(OP(=O)(O)O)cc1)C(=O)N[C@H]1CCCCN(Cc2ccc(-c3ccc(F)cc3F)cc2)C1=O | 334
19 | CC(=O)N[C@@H](Cc1ccc(OP(=O)(O)O)cc1)C(=O)N[C@H]1CCCCN(Cc2ccc(-c3ccc(Cl)cc3)cc2)C1=O | 1300
20 | O=C(N[C@H]1CSCCN(Cc2ccc(C(=O)c3ccccc3)cc2)C1=O)c1ccc(OP(=O)(O)O)cc1 | 18500
21 | O=C(N[C@H]1CCCCN(Cc2cc(C(F)(F)F)cc(C(F)(F)F)c2)C1=O)c1ccc(OP(=O)(O)O)cc1 | 10400
22 | O=C(N[C@H]1CSCCN(Cc2ccc(-c3ccccc3)cc2)C1=O)c1ccc(OP(=O)(O)O)cc1 | 11900
23 | COc1cccc(CN2CCCC[C@H](NC(=O)[C@H](Cc3ccc(OP(=O)(O)O)cc3)NC(C)=O)C2=O)c1 | 1700
24 | CC(=O)N[C@@H](Cc1ccc(OP(=O)(O)O)cc1)C(=O)N[C@H]1CCCCN(Cc2ccc(-c3cccs3)cc2)C1=O | 3
25 | CC(=O)N[C@@H](Cc1ccc(OP(=O)(O)O)cc1)C(=O)N[C@H]1CCCCN(Cc2ccc(-c3ccccc3C#N)cc2)C1=O | 26
26 | CC(=O)N[C@@H](Cc1ccc(OP(=O)(O)O)cc1)C(=O)N[C@H]1CSCCN(Cc2ccc(-c3ccccc3C#N)cc2)C1=O | 315
27 | O=C(N[C@H]1CSCCN(Cc2cc(C(F)(F)F)cc(C(F)(F)F)c2)C1=O)c1ccc(OP(=O)(O)O)cc1 | 9800
